According to ChEMBL document CHEMBL3885881, “DrugMatrix”:

Organism: Rattus norvegicus
Experiment: DrugMatrix - Regimen: Daily Repeat
Assay type: toxicity, organism-based, Sprague-Dawley
Design: regimen Daily Repeat, gender Male, age 6-8 weeks
Conditions: in vivo, po, route oral GAVAGE, […]; for ABSOLUTE BASOPHIL / ABSOLUTE EOSINOPHIL / ABSOLUTE LYMPHOCYTE / ABSOLUTE MONOCYTE / ABSOLUTE SEGMENTED NEUTROPHIL / BASOPHIL / EOSINOPHIL / ERYTHROCYTE COUNT / HEMATOCRIT / HEMOGLOBIN / LEUKOCYTE COUNT / LYMPHOCYTE / MEAN CORPUSCULAR HEMOGLOBIN / MEAN CORPUSCULAR HEMOGLOBIN CONCENTRATION / MEAN CORPUSCULAR VOLUME / MONOCYTE / NEUTROPHIL / NUCLEATED RED BLOOD CELLS / PLATELET COUNT: tissue Blood; for ALANINE AMINOTRANSFERASE / ALBUMIN / ALKALINE PHOSPHATASE / ASPARTATE AMINOTRANSFERASE / BLOOD UREA NITROGEN / CARBON DIOXIDE / CHLORIDE / CHOLESTEROL / CREATINE PHOSPHOKINASE / CREATININE / GLUCOSE / LACTATE DEHYDROGENASE / LIPASE / PHOSPHORUS / POTASSIUM / SODIUM / TOTAL BILIRUBIN / TOTAL PROTEIN / URIC ACID: tissue Plasma
[1] = 3 mg/kg, 120 h, dose level Low, time 5 day
[2] = 775 mg/kg, 72 h, dose level High, time 3 day
[3] = 775 mg/kg, 120 h, dose level High, time 5 day

In the case of `CS(=O)(=O)c1ccc(C2=C(c3ccccc3)C(=O)OC2)cc1` [ROFECOXIB], the “ABSOLUTE BASOPHIL” value [1] is reported as 0 CELLS/uL, the “ABSOLUTE EOSINOPHIL” value [1] is reported as 0 CELLS/uL and the “ABSOLUTE LYMPHOCYTE” value [1] is reported as 7546 CELLS/uL. For the same compound, the “ABSOLUTE MONOCYTE” value [1] was 71.67 CELLS/uL, the “ABSOLUTE SEGMENTED NEUTROPHIL” value [1] was 782.33 CELLS/uL and the BASOPHIL [1] was 0%. For the same compound, the EOSINOPHIL [1] was 0%, the “ERYTHROCYTE COUNT” value [1] was 5.17 x10E6/uL and the HEMATOCRIT [1] was 33.27%. For the same compound, the HEMOGLOBIN [1] was 13.07 G/DL, the “LEUKOCYTE COUNT” value [1] was 8.4 x10E3/uL and the LYMPHOCYTE [1] was 90.67%. The “MEAN CORPUSCULAR HEMOGLOBIN” value [1] was 25.27 pg, the “MEAN CORPUSCULAR HEMOGLOBIN CONCENTRATION” value [1] was 39.27 G/DL and the “MEAN CORPUSCULAR VOLUME” value [1] was 64.33 fL. The MONOCYTE [1] was 1%, the NEUTROPHIL [1] was 8.33% and the “NUCLEATED RED BLOOD CELLS” value [1] was 0 /100WBC. For the same compound, the “PLATELET COUNT” value [1] was 1212.67 x10E3/uL, the “ALANINE AMINOTRANSFERASE” value [1] was 57.33 u/L and the ALBUMIN [1] was 4.17 G/DL. For the same compound, the “ALKALINE PHOSPHATASE” value [1] was 300.67 u/L, the “ASPARTATE AMINOTRANSFERASE” value [1] was 85.67 u/L and the “BLOOD UREA NITROGEN” value [1] was 12.33 mg/dL. For the same compound, the “CARBON DIOXIDE” value [1] was 27.67 mmol/L, the CHLORIDE [1] was 100.67 MEQ/L and the CHOLESTEROL [1] was 62 mg/dL. For the same compound, the “CREATINE PHOSPHOKINASE” value [1] was 325.33 u/L, the CREATININE [1] was 0.22 mg/dL and the GLUCOSE [1] was 165 mg/dL. The “LACTATE DEHYDROGENASE” value [1] was 77 u/L, the LIPASE [1] was 11.33 u/L and the PHOSPHORUS [1] was 9.4 mg/dL. The POTASSIUM [1] was 6.14 MEQ/L, the SODIUM [1] was 145.9 MEQ/L and the “TOTAL BILIRUBIN” value [1] was 0.13 mg/dL. The “TOTAL PROTEIN” value [1] was 6.1 G/DL, the “URIC ACID” value [1] was 0.73 mg/dL and the “ABSOLUTE BASOPHIL” value [2] was 0 CELLS/uL. The “ABSOLUTE EOSINOPHIL” value [2] was 0 CELLS/uL, the “ABSOLUTE LYMPHOCYTE” value [2] was 11625.33 CELLS/uL and the “ABSOLUTE MONOCYTE” value [2] was 298.67 CELLS/uL. For the same compound, the “ABSOLUTE SEGMENTED NEUTROPHIL” value [2] was 1009.33 CELLS/uL, the BASOPHIL [2] was 0% and the EOSINOPHIL [2] was 0%. The “ERYTHROCYTE COUNT” value [2] was 5.13 x10E6/uL, the HEMATOCRIT [2] was 32.27% and the HEMOGLOBIN [2] was 12.53 G/DL. For the same compound, the “LEUKOCYTE COUNT” value [2] was 12.93 x10E3/uL, the LYMPHOCYTE [2] was 90% and the “MEAN CORPUSCULAR HEMOGLOBIN” value [2] was 24.43 pg. The “MEAN CORPUSCULAR HEMOGLOBIN CONCENTRATION” value [2] was 38.83 G/DL, the “MEAN CORPUSCULAR VOLUME” value [2] was 62.93 fL and the MONOCYTE [2] was 2.33%. The NEUTROPHIL [2] was 7.67%, the “NUCLEATED RED BLOOD CELLS” value [2] was 0.33 /100WBC and the “PLATELET COUNT” value [2] was 877.67 x10E3/uL. The “ALANINE AMINOTRANSFERASE” value [2] was 55.33 u/L, the ALBUMIN [2] was 3.53 G/DL and the “ALKALINE PHOSPHATASE” value [2] was 313.67 u/L. For the same compound, the “ASPARTATE AMINOTRANSFERASE” value [2] was 81.33 u/L, the “BLOOD UREA NITROGEN” value [2] was 14.33 mg/dL and the “CARBON DIOXIDE” value [2] was 26.67 mmol/L. The CHLORIDE [2] was 99.33 MEQ/L, the CHOLESTEROL [2] was 77.67 mg/dL and the “CREATINE PHOSPHOKINASE” value [2] was 192.67 u/L. The CREATININE [2] was 0.21 mg/dL, the GLUCOSE [2] was 185.67 mg/dL and the “LACTATE DEHYDROGENASE” value [2] was 91.33 u/L. It also gave an LIPASE [2] of 22.33 u/L, a PHOSPHORUS [2] of 10.4 mg/dL and a POTASSIUM [2] of 5.68 MEQ/L. For the same compound, the SODIUM [2] was 144.1 MEQ/L, the “TOTAL BILIRUBIN” value [2] was 0.1 mg/dL and the “TOTAL PROTEIN” value [2] was 5.6 G/DL. The “URIC ACID” value [2] was 0.87 mg/dL, the “ABSOLUTE BASOPHIL” value [3] was 0 CELLS/uL and the “ABSOLUTE EOSINOPHIL” value [3] was 72.67 CELLS/uL. The “ABSOLUTE LYMPHOCYTE” value [3] was 8378 CELLS/uL, the “ABSOLUTE MONOCYTE” value [3] was 35.33 CELLS/uL and the “ABSOLUTE SEGMENTED NEUTROPHIL” value [3] was 1314 CELLS/uL. For the same compound, the BASOPHIL [3] was 0%, the EOSINOPHIL [3] was 0.67% and the “ERYTHROCYTE COUNT” value [3] was 4.79 x10E6/uL. For the same compound, the HEMATOCRIT [3] was 30.33%, the HEMOGLOBIN [3] was 11.77 G/DL and the “LEUKOCYTE COUNT” value [3] was 9.8 x10E3/uL. For the same compound, the LYMPHOCYTE [3] was 84%, the “MEAN CORPUSCULAR HEMOGLOBIN” value [3] was 24.53 pg and the “MEAN CORPUSCULAR HEMOGLOBIN CONCENTRATION” value [3] was 38.8 G/DL. For the same compound, the “MEAN CORPUSCULAR VOLUME” value [3] was 63.33 fL, the MONOCYTE [3] was 0.67% and the NEUTROPHIL [3] was 14.67%. For the same compound, the “NUCLEATED RED BLOOD CELLS” value [3] was 0 /100WBC, the “PLATELET COUNT” value [3] was 1142 x10E3/uL and the “ALANINE AMINOTRANSFERASE” value [3] was 51 u/L. For the same compound, the ALBUMIN [3] was 3.33 G/DL, the “ALKALINE PHOSPHATASE” value [3] was 298.67 u/L and the “ASPARTATE AMINOTRANSFERASE” value [3] was 77.33 u/L. For the same compound, the “BLOOD UREA NITROGEN” value [3] was 12.67 mg/dL, the “CARBON DIOXIDE” value [3] was 28 mmol/L and the CHLORIDE [3] was 99.67 MEQ/L. The CHOLESTEROL [3] was 80 mg/dL, the “CREATINE PHOSPHOKINASE” value [3] was 192.67 u/L and the CREATININE [3] was 0.34 mg/dL. The GLUCOSE [3] was 160.67 mg/dL, the “LACTATE DEHYDROGENASE” value [3] was 72 u/L and the LIPASE [3] was 12.67 u/L. It also gave a PHOSPHORUS [3] of 9.2 mg/dL, a POTASSIUM [3] of 5.83 MEQ/L and an SODIUM [3] of 144.83 MEQ/L. The “TOTAL BILIRUBIN” value [3] was 0.1 mg/dL, the “TOTAL PROTEIN” value [3] was 5.6 G/DL and the “URIC ACID” value [3] was 0.7 mg/dL.
